Reference: article PMC7497249, “Synthesis and Biological Screening of New Lawson Derivatives as Selective Substrate‐Based Inhibitors of Cytochrome bo3 Ubiquinol Oxidase from Escherichia coli” (Chemmedchem, 2020)
Values joined by “and” are separate entries in the source; they are usually repeats but may differ in a detail not shown here. Equal entries are not always repeated. Where two headings read alike, the source gives them in different places.

Tests used:
[1] = biological target: T1, purified E. coli cyt bo3 oxidase (Escherichia coli, UniProt P0ABI8); experiment: biochemical; conditions: for inhibition at 250 µM: read-out: inhibition (reduction) of cyt bo3 activity; for remaining activity at 250 µM: read-out: Residual activity for oxygen reduction, Cytochrome bo3
T1 construct: made in house; host or cells: E. coli strain GO195 with plasmid pIRHisA
Description: (§1) The inhibitory effect of a set of HNQs was screened in micromolar range to identify selective cyt bo3 and cyt bd‐I inhibitors. Oxygen reduction was measured via a Clark‐type electrode. Turnover rates of cyt bo3 and bd‐I experiments are presented as relative activities (Figure 1). For experimental overview and further information see Supporting Information (Figures S38–S40), Tables S2–3). Activity of cyt bo 3 was strongly (>50 %) reduced by HNQ‐1, ‐2, ‐6, ‐7 and ‐12. […]. Overall, the E. coli bd‐I‐type oxidase was less sensitive to the majority of examined compounds. […]; HNQ‐12: 56 %).
(§2) Figure 1 Screening of the inhibition potentials of tested hydroxynaphthoquinones (HNQ) on the oxidase reduction activity of purified E. coli cytbo3 (white) and bd‐I (light gray) oxidase. Inhibition assay using HNQs at 250 μM in the presence of 200 μM ubiquinone‐1 and 5 mM dithiothreitol. Oxygen reduction activity was calculated from oxygen consumption rates at 30 nM enzyme concentration at RT for each experiment. 100 % activity=adding corresponding volume of EtOH. KCN (20 μM) and HQNO (250 μM) represent positive inhibition controls for cyt bo3. The data are mean values of three independent experiments ± standard deviation.
(§3) Oxygen reductase activity measurements: Oxygen reductase activity was measured as oxygen consumption rate of purified protein by an OX‐MR Clark‐type oxygen electrode linked to a PA 2000 picoammeter and to an ADC‐216 for analog to digital conversion. Recording of data with SensorTrace Basic 2.1 software (all Unisense, Denmark).
(§4) Measurements were performed at room temperature in stirred 2 mL – glass vials with a total reaction volume of 600 μL. Oxygen consumption was initiated by adding 30 nM of the respective enzyme to the equilibrated mixture containing 20 mM NaPi (pH 8.0), 50 mM NaCl, 0.02 % DDM, 5 mM dithiothreitol (DTT) and 200 μM Ubiquinone‐1 (2,3‐dimethoxy‐5‐methyl‐6‐(3‐methylbut‐2‐en‐1‐yl)‐1,4‐benzoquinone). Equilibration was done for 10 min prior to enzyme addition. Inhibition experiments with 250 μM of respective HNQ from 20 mM stock solution in EtOH before equilibration. Data analysis and visualization with Origin Lab Pro 9.5 (Additive GmbH, Germany). HQNO (2‐heptyl‐4‐quinolinol 1‐oxide) was purchased from biomol GmbH, Hamburg. Determination of apparent k i (k i ^app) was performed under the same conditions but with a range of inhibitor concentrations from 1000 μM to 0.2 μM. The k i ^app value was adopted as the EC50 from the sigmoidal DoseResp Fit. Further information can be found in Figures S40–S43.

[2] = biological target: T2, purified E. coli cyt bd-I oxidase (Escherichia coli, UniProt P0ABJ9); experiment: biochemical; conditions: for remaining activity at 250 µM: read-out: Residual activity for oxygen reduction, Cytochrome bd-I
T2 construct: made in house; host or cells: E. coli C43(DE3) Δbo3 with plasmid pet17b-cydABX-StrepII
Description: as §1, §2, §3, §4

[3] = absorbance-based thermodynamic equilibrium solubility assay; format: physicochemical; conditions: buffer 20 mM NaPi, 50 mM NaCl, 0.02 % DDM, pH 8.0, room temperature; for solubility at 1 day: sodium phosphate buffer
Description: To meet the requirements for further functional investigations, the solubilities of the HNQ compounds were determined by an absorbance‐based thermodynamic equilibrium solubility assay.36 As shown in Scheme 3a, plotting absorbance over concentration at the wavelength of the maximum peak of the absorbance spectra, (HNQ‐2 at λ=274 nm), provides a saturation point at 1.26±0.03 mM (solubility graphs for all HNQ compounds are shown in Figure S37). […]. Therefore, all twelve HNQ compounds are feasible for further functional studies.
Solubility assay: Thermodynamic equilibrium solubility of HNQ compounds was determined in sodium phosphate buffer containing 20 mM NaPi, 50 mM NaCl, 0.02 % DDM at pH 8.0. All steps were performed at room temperature following the method by Bharate and Vishwakarma.36 Measurements were done in triplicates. HNQ compounds were dissolved in a particular amount of methanol or CH2Cl2 (HNQ‐9) needed for complete dissolving. Required volumes of these methanol stock solutions were transferred in 1.5 mL reaction tubes (0.1–600 μL dependent on compound and stock concentration) to get a concentration row. After 24–48 h complete evaporation of methanol or CH2Cl2 was accomplished. Remaining solid compounds were dissolved by adding 100/200 μL of sodium phosphate buffer to the reaction tubes, which were shaken at 200 rpm for one day for equilibration. Next day, centrifugation of the reaction tubes for 30 min at 13 000 rpm at 11000 g. 50/100 μL of supernatant were pipetted into a 96‐well plate (UV‐Star, Greiner), and absorbance spectra were recorded for each well with a TECAN Spark plate reader (Tecan Trading AG, Switzerland). By plotting absorbance at λ max against concentration [mM] of the compound, saturation point of graph indicates the thermodynamic equilibrium solubility. Data analysis and visualization with SigmaPlot Pro 12.5 (Systat Software GmbH, Germany).

[4] = biological target: T3, cyt bo3 (Escherichia coli, UniProt P0ABI8); conditions: steady state kinetic experiments; read-out: kiapp; cited from earlier work
T3 construct: made in house; host or cells: E. coli strain GO195 with plasmid pIRHisA

[5] = HNQ 250 μM, 200 μM ubiquinone-1
[6] = inhibitor 250 µM, 200 μM ubiquinone-1, 5 mM DTT, 30 nM enzyme, RT, mean of three ± SD, 100 % = EtOH
[7] = aqueous with cosolvent or surfactant or cyclodextrin, thermodynamic from solid
[8] = inhibitor 250 µM, 200 μM ubiquinone-1, 5 mM DTT, 30 nM enzyme, RT, mean of three ± SD, 100 % = EtOH, listed as HNQ-4

T2 sequence (P56100 whole entry): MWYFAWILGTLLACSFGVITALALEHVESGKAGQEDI
T2 sequence (P0ABJ9 whole entry): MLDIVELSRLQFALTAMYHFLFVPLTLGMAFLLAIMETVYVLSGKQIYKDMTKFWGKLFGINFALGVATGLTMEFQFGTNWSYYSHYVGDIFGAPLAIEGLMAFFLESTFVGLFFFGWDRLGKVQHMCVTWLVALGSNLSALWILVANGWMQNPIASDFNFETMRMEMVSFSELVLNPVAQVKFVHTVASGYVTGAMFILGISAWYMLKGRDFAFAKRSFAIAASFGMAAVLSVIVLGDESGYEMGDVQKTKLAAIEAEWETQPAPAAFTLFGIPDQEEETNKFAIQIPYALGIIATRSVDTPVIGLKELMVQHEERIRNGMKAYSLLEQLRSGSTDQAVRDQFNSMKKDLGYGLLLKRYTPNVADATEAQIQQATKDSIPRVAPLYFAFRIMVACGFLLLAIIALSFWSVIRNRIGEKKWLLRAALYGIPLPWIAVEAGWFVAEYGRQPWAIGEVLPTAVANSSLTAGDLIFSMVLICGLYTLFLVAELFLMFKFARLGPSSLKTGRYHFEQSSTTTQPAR
T2 sequence (P0ABK2 whole entry, further chain): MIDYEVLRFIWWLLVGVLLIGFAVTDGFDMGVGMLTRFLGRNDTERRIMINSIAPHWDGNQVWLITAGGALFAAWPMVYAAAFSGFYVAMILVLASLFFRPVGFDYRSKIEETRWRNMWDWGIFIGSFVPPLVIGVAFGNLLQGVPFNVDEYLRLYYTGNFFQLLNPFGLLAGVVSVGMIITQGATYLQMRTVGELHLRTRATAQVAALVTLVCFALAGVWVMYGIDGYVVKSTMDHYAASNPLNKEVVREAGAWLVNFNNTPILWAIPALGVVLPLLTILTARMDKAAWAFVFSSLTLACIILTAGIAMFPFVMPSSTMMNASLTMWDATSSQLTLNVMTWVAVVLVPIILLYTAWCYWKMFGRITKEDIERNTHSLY
T1 sequence (P0ABJ1 25-315): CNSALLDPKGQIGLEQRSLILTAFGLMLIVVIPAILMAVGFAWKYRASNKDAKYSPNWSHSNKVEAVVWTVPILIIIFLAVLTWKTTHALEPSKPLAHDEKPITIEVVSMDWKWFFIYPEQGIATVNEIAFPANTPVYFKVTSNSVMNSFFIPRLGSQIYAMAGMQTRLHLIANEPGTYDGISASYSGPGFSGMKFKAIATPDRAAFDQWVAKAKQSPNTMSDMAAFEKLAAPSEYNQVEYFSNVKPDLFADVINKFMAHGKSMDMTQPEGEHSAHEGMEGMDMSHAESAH
T1 sequence (P0ABJ3 whole entry, further chain): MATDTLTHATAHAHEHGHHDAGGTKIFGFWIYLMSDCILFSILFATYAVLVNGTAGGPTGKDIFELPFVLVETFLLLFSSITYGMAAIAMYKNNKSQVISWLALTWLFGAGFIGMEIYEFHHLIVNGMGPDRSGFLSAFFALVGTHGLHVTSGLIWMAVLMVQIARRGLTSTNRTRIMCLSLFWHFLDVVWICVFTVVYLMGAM
T1 sequence (P0ABI8 whole entry): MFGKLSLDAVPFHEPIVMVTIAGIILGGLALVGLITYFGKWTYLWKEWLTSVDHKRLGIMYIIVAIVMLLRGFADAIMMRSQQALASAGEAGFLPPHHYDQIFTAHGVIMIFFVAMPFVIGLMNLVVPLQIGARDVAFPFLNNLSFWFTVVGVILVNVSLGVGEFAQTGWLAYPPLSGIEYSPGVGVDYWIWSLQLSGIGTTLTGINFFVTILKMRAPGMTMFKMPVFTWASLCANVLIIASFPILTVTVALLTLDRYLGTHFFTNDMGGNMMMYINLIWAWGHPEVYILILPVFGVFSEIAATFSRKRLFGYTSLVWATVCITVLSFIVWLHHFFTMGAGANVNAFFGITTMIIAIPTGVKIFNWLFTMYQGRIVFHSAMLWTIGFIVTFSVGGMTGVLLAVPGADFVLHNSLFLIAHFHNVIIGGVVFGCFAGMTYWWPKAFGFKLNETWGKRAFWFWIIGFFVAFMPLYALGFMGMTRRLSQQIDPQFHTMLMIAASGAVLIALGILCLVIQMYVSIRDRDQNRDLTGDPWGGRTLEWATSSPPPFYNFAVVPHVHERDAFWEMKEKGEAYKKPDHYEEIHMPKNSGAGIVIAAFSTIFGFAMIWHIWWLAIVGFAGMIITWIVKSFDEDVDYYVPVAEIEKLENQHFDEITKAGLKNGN
T1 sequence (P0ABJ6 whole entry, further chain): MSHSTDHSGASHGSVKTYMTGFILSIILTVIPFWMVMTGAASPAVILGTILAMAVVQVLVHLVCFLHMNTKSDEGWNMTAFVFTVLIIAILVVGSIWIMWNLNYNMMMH
T3 sequence (P0ABJ1 25-315): as the sequence (P0ABJ1 25-315) above
T3 sequence (P0ABI8 whole entry): as the sequence (P0ABI8 whole entry) above
T3 sequence (P0ABJ3 whole entry, further chain): as the sequence (P0ABJ3 whole entry, further chain) above
T3 sequence (P0ABJ6 whole entry, further chain): as the sequence (P0ABJ6 whole entry, further chain) above

2‐Hydroxy‐3‐[(3,5‐dihydroxybenzyl)methyl]‐1,4‐naphthoquinone [HNQ‐10]
inhibition (reduction) of cyt bo3 activity [1, 5]: 31%
Residual activity for oxygen reduction, Cytochrome bo3 [1, 6]: 69.1 ± 8%
Residual activity for oxygen reduction, Cytochrome bd-I [2, 6]: 107 ± 8%
Solubility [3]: 840±151 μg/mL and 2.1±0.4 mM

2‐Hydroxy‐3‐[(4‐phenoxybenzyl)methyl]‐1,4‐naphthoquinone [HNQ‐12]
inhibition (reduction) of cyt bo3 activity [1, 5]: > 50%
Residual activity for oxygen reduction, Cytochrome bo3 [1, 6]: 13.1 ± 7%
inhibitory effect on cyt bd-I oxidase [2, 5]: 56%
Residual activity for oxygen reduction, Cytochrome bd-I [2, 6]: 43.8 ± 7%
Solubility [3]: 1640±94 μg/mL and 4.6±0.3 mM

2‐Hydroxy‐3‐[(ferreocenyl)methyl]‐1,4‐naphthoquinone [HNQ‐9]
Residual activity for oxygen reduction, Cytochrome bo3 [1]: 84.4 ± 17%
inhibition (reduction) of cyt bo3 activity [1]: < 30%
Residual activity for oxygen reduction, Cytochrome bd-I [2]: 110 ± 17%
inhibitory effect on cyt bd-I oxidase [2]: < 30%
Solubility [3]: >8.3 mM

CCCCCCCCCCCCCC1=C(O)C(=O)c2ccccc2C1=O [HNQ‐1, 2‐Hydroxy‐3‐tridecyl‐1,4‐naphthoquinone]
inhibition at 250 µM [1, 5]: > 50%
remaining activity at 250 µM [1, 6]: 2.64 ± 12%
inhibitory effect on cyt bd-I oxidase [2, 5]: 30%
remaining activity at 250 µM [2, 6]: 70.2 ± 12%
solubility at 1 day [3, 7]: 335 µg/mL and 1020 µM

O=C1C(O)=C(Cc2ccccc2)C(=O)c2ccccc21 [HNQ‐2, 2‐Hydroxy‐3‐methylene‐(benzyl)‐1,4‐naphthoquinone]
inhibitory effect on cyt bo3 activity (in words) ([1]; HNQ 250 μM): strong inhibitory effect
inhibition at 250 µM [1, 5]: > 50%
remaining activity at 250 µM [1, 6]: 21.8 ± 6%
inhibitory effect on cyt bd-I activity (in words) ([2]; HNQ 250 μM): not influencing
remaining activity at 250 µM [2, 6]: 107 ± 6%
Solubility ([3]; aqueous with cosolvent or surfactant or cyclodextrin, thermodynamic from solid, read-out: Solubility): 334 µg/mL and 1260 µM

O=C1C(O)=C(Cc2ccncc2)C(=O)c2ccccc21 [HNQ‐3, 2‐Hydroxy‐3‐methylen‐(4‐N‐pyridyl)‐1,4‐naphthoquinone]
inhibitory effect on cyt bo3 activity (in words) ([1]; HNQ 250 μM): activity remains unaffected
inhibition at 250 µM [1, 5]: < 30%
remaining activity at 250 µM [1, 6]: 99.5 ± 12%
inhibitory effect on cyt bd-I activity (in words) ([2]; HNQ 250 μM): activity remains unaffected
inhibitory effect on cyt bd-I oxidase [2, 5]: < 30%
remaining activity at 250 µM [2, 6]: 110 ± 12%
solubility at 1 day [3, 7]: 627 µg/mL and 2360 µM

CN(C)c1ccc(CC2=C(O)C(=O)c3ccccc3C2=O)cc1 [HNQ‐4, 2‐Hydroxy‐3‐methylen‐(4‐N,N ‐dimethylanilid)‐1,4 naphthoquinone]
inhibition at 250 µM [1, 5]: < 30%
Residual activity for oxygen reduction, Cytochrome bo3 [1, 6]: 15%
Residual activity for oxygen reduction, Cytochrome bo3 [1, 8]: 84.8 ± 11%
inhibitory effect on cyt bd-I oxidase [2, 5]: < 30%
Residual activity for oxygen reduction, Cytochrome bd-I [2, 6]: 15%
Residual activity for oxygen reduction, Cytochrome bd-I [2, 8]: 84.2 ± 11%
solubility at 1 day [3, 7]: 267 µg/mL and 870 µM

O=C1C(O)=C(Cc2ccc3[nH]ncc3c2)C(=O)c2ccccc21 [HNQ‐5, 2‐Hydroxy‐3‐[(indazol‐5‐yl)methyl]‐1,4‐naphthoquinone]
inhibition at 250 µM [1, 5]: 40%
remaining activity at 250 µM [1, 6]: 59.9 ± 7%
remaining activity at 250 µM [2, 6]: 117 ± 7%
solubility at 1 day [3, 7]: 1670 µg/mL and 5500 µM

O=C1C(O)=C(Cc2ccc3c(c2)OCO3)C(=O)c2ccccc21 [HNQ‐6, 2‐Hydroxy‐3‐[(1,2‐methylenedioxybenz‐5 yl)methyl]‐1,4‐naphthoquinone]
inhibition at 250 µM [1, 5]: > 50%
Residual activity for oxygen reduction, Cytochrome bo3 [1, 6]: < 30%
remaining activity at 250 µM [1, 6]: 27.3 ± 13%
remaining activity at 250 µM [2, 6]: 109 ± 13%
solubility at 1 day [3, 7]: 400 µg/mL and 780 µM

COc1cc(CC2=C(O)C(=O)c3ccccc3C2=O)ccc1O [HNQ‐7, 2‐Hydroxy‐3‐[(4‐hydroxy‐3‐methoxyphenyl)methyl]‐1,4‐naphthoquinone]
inhibition at 250 µM [1, 5]: > 50%
Residual activity for oxygen reduction, Cytochrome bo3 [1, 6]: < 50%
remaining activity at 250 µM [1, 6]: 49.5 ± 7%
remaining activity at 250 µM [2, 6]: 106 ± 7%
solubility at 1 day [3, 7]: > 2680 µg/mL and > 8300 µM

O=C1C(O)=C(Cc2c[nH]c3ncccc23)C(=O)c2ccccc21 [HNQ‐8, 2‐Hydroxy‐3‐[(1H‐pyrrolo(2,3‐b)pyridine‐3‐yl)methyl]‐1,4‐naphthoquinone]
inhibitory effect on cyt bo3 activity (in words) ([1]; HNQ 250 μM): could not show an influence
remaining activity at 250 µM [1, 6]: 101 ± 5%
inhibitory effect on cyt bd-I activity (in words) ([2]; HNQ 250 μM): could not show an influence
inhibitory effect on cyt bd-I oxidase [2, 5]: < 30%
remaining activity at 250 µM [2, 6]: 106 ± 5%
solubility at 1 day [3, 7]: > 3140 µg/mL and > 10300 µM

O=C1C(O)=C(C(c2nc3ccccc3s2)N2CCC[C@H]2C(=O)O)C(=O)c2ccccc21 (stereo partly drawn) [HNQ‐11, 2‐Hydroxy‐3‐[(2‐thiazol(2‐3)benzyl)methyl)pyrrolidine‐2‐carboxylic acid‐1,4‐naphthoquinone]
inhibitory effect on cyt bo3 activity (in words) ([1]; HNQ 250 μM): could not show an influence
inhibition at 250 µM [1, 5]: < 30%
remaining activity at 250 µM [1, 6]: 115 ± 13%
inhibitory effect on cyt bd-I activity (in words) ([2]; HNQ 250 μM): could not show an influence
inhibitory effect on cyt bd-I oxidase [2, 5]: < 30%
remaining activity at 250 µM [2, 6]: 111 ± 13%
solubility at 1 day [3, 7]: 800 µg/mL and 1840 µM

CCCCCCCc1cc(O)c2ccccc2[n+]1[O-] [HQNO, 2‐heptyl‐4‐quinolinol 1‐oxide, reference compound]
remaining activity at 250 µM [1, 6]: 4.42 ± 6%
remaining activity at 250 µM [2, 6]: 9.05 ± 1%
Ki [4]: 700 nM
